Source: the NIST ThermoML archive (doi:10.1016/j.fluid.2013.10.038)
Numbers after ± are expanded uncertainties.

Experiment: excess molar enthalpy (molar enthalpy of mixing); xn = mol fraction of the nth substance listed
Conditions: Liquid, Flow calorimetry

Compound: CCOC(C)=O [ethyl acetate] + O=C=O
- excess molar enthalpy (298.15 K, 5000 kPa, x2 = 0.099): -0.284 ± 0.00837 kcal/mol
- excess molar enthalpy (298.15 K, 5000 kPa, x2 = 0.199): -0.567 ± 0.0134 kcal/mol
- excess molar enthalpy (298.15 K, 5000 kPa, x2 = 0.3): -0.837 ± 0.0186 kcal/mol
- excess molar enthalpy (298.15 K, 5000 kPa, x2 = 0.4): -1.11 ± 0.0239 kcal/mol
- excess molar enthalpy (298.15 K, 5000 kPa, x2 = 0.5): -1.37 ± 0.0287 kcal/mol
- excess molar enthalpy (298.15 K, 6000 kPa, x2 = 0.101): -0.251 ± 0.00837 kcal/mol
- excess molar enthalpy (298.15 K, 6000 kPa, x2 = 0.2): -0.512 ± 0.0127 kcal/mol
- excess molar enthalpy (298.15 K, 6000 kPa, x2 = 0.3): -0.757 ± 0.0179 kcal/mol
- excess molar enthalpy (298.15 K, 6000 kPa, x2 = 0.399): -0.984 ± 0.0229 kcal/mol
- excess molar enthalpy (298.15 K, 6000 kPa, x2 = 0.5): -1.21 ± 0.0263 kcal/mol
- excess molar enthalpy (298.15 K, 7000 kPa, x2 = 0.1): -0.0915 ± 0.00406 kcal/mol
- excess molar enthalpy (298.15 K, 7000 kPa, x2 = 0.2): -0.167 ± 0.00813 kcal/mol
- excess molar enthalpy (298.15 K, 7000 kPa, x2 = 0.299): -0.239 ± 0.0117 kcal/mol
- excess molar enthalpy (298.15 K, 7000 kPa, x2 = 0.4): -0.304 ± 0.0153 kcal/mol
- excess molar enthalpy (303.15 K, 5000 kPa, x2 = 0.099): -0.294 ± 0.00837 kcal/mol
- excess molar enthalpy (303.15 K, 5000 kPa, x2 = 0.199): -0.582 ± 0.0136 kcal/mol
- excess molar enthalpy (303.15 K, 5000 kPa, x2 = 0.3): -0.87 ± 0.0194 kcal/mol
- excess molar enthalpy (303.15 K, 5000 kPa, x2 = 0.4): -1.14 ± 0.0239 kcal/mol
- excess molar enthalpy (303.15 K, 6000 kPa, x2 = 0.101): -0.275 ± 0.00813 kcal/mol
- excess molar enthalpy (303.15 K, 6000 kPa, x2 = 0.2): -0.535 ± 0.0127 kcal/mol
- excess molar enthalpy (303.15 K, 6000 kPa, x2 = 0.3): -0.793 ± 0.0177 kcal/mol
- excess molar enthalpy (303.15 K, 6000 kPa, x2 = 0.399): -1.04 ± 0.0227 kcal/mol
- excess molar enthalpy (303.15 K, 6000 kPa, x2 = 0.5): -1.27 ± 0.0287 kcal/mol
- excess molar enthalpy (303.15 K, 7000 kPa, x2 = 0.1): -0.216 ± 0.00717 kcal/mol
- excess molar enthalpy (303.15 K, 7000 kPa, x2 = 0.2): -0.432 ± 0.0105 kcal/mol
- excess molar enthalpy (303.15 K, 7000 kPa, x2 = 0.299): -0.647 ± 0.0151 kcal/mol
- excess molar enthalpy (303.15 K, 7000 kPa, x2 = 0.4): -0.849 ± 0.0194 kcal/mol
- excess molar enthalpy (303.15 K, 7000 kPa, x2 = 0.5): -1.02 ± 0.0225 kcal/mol
- excess molar enthalpy (308.15 K, 5000 kPa, x2 = 0.099): -0.346 ± 0.0086 kcal/mol
- excess molar enthalpy (308.15 K, 5000 kPa, x2 = 0.199): -0.556 ± 0.0129 kcal/mol
- excess molar enthalpy (308.15 K, 5000 kPa, x2 = 0.3): -0.839 ± 0.0186 kcal/mol
- excess molar enthalpy (308.15 K, 5000 kPa, x2 = 0.4): -1.1 ± 0.0239 kcal/mol
- excess molar enthalpy (308.15 K, 6000 kPa, x2 = 0.101): -0.274 ± 0.00789 kcal/mol
- excess molar enthalpy (308.15 K, 6000 kPa, x2 = 0.2): -0.543 ± 0.0127 kcal/mol
- excess molar enthalpy (308.15 K, 6000 kPa, x2 = 0.3): -0.791 ± 0.0177 kcal/mol
- excess molar enthalpy (308.15 K, 6000 kPa, x2 = 0.399): -1.05 ± 0.0229 kcal/mol
- excess molar enthalpy (308.15 K, 7000 kPa, x2 = 0.1): -0.238 ± 0.00693 kcal/mol
- excess molar enthalpy (308.15 K, 7000 kPa, x2 = 0.2): -0.473 ± 0.0112 kcal/mol
- excess molar enthalpy (308.15 K, 7000 kPa, x2 = 0.299): -0.709 ± 0.0158 kcal/mol
- excess molar enthalpy (308.15 K, 7000 kPa, x2 = 0.4): -0.928 ± 0.0203 kcal/mol
- excess molar enthalpy (308.15 K, 7000 kPa, x2 = 0.5): -1.13 ± 0.0239 kcal/mol
